Like-named read-outs stand apart in the source and are kept apart here.
Assays:
Type in all cases: cell-based, human
PC-3 cells [1] = experiment: Mitochondrial membrane potential (MMP) detection, DiOC6(3)/PI flow cytometry, PC-3 cells; details: for effect on MMP alteration induced by zinc/SFN: PC-3, pretreatment 30 min, treatment 24 h; for effect on MMP versus control, single agent: PC-3, zinc alone or SFN 12 μM alone
Source text: Cell flow cytometric analysis with 3,3′-dihexyloxacarbocyanine iodide (DiOC6(3); Invitrogen, Carlsbad, Calif.) and propidium iodide (PI;BD Pharmingen, San Jose, Calif.) was used to evaluate MMP and apoptosis of the cells. The fluorescence dye DiOC6(3) is featured by its accumulation in the mitochondrial matrix, which is resulted from negative mitochondrial membrane potential within viable cells. Thus, the changes of fluorescence of DiOC6(3) reflect the MMP alteration of the cells. Another fluorescence dye PI is cell membrane impermeable and able to stain DNA once cell membrane integrity is damaged during apoptosis. In the experiments, after treatments, cells (2.5×10^5/ml) were incubated with 100 nM DiOC6(3) in PBS for 15 min at 37° C. Then the cells were washed in PBS once, followed by incubation with 2.5 μg/ml PI for additional 10 min at room temperature. The samples were subjected to cell flow cytometric analysis, and FACScan (Becton Dickinson) was used to analyze the fluorescence of DIOC6(3) and PI [2].

PC-3 cells [2] = experiment: ROS detection (carboxy-H2DCFDA, flow cytometry) in PC-3 cells; details: for effect on ROS production induced by zinc, SFN or zinc/SFN combination / effect on surge of ROS induced by zinc/SFN combination: PC-3, inhibitor 6 mM; for effect on ROS production induced by zinc, SFN or zinc/SFN combination: 30 min pretreatment, 6 h and 24 h; for effect on surge of ROS induced by zinc/SFN combination: 24 h of treatment; for increase of ROS levels: PC-3, SFN alone
Experimental: 5-(and-6)-carboxy-2 ′,7 ′-dichlorodihydrofluorescein diacetate (carboxy-H2DCFDA,) was used to determine the intracellular ROS levels of individual cells. In living cells, this compound is oxidized and converted to the 2′,7′-dichlorofluoroscein (DCF) that is highly fluorescent. In the experiments, PC-3 cells cultured on 12-well plates were incubated in serum-free medium containing zinc sulfate ([…])/SFN (12 μM). Thirty min prior to the completion of the time course, carboxy-H2DCFDA was added at a final concentration of 5 μM. Cells were then collected and washed once with PBS. The fluorescent intensity of DCF was assayed by FACScan (Becton Dickinson)[3].

PC-3 cells [3] = experiment: MTT cell viability assay, PC-3 cells; details: for effect on growth inhibitory effect of zinc, SFN and their combination: PC-3, inhibitor 6 mM pretreatment; for effect on growth inhibitory effect of zinc, SFN and their combination / IC50: MTT; for IC50: PC-3 cells, single agent, read-out: 50% inhibitory concentration (IC50)
Experimental: Two human prostatic cell lines were used: a) HPR-1, a cell line derived from normal human prostate epithelial cells (kindly provided by Dr. C. K. Choo, University of Hong Kong, Hong Kong, China); and b) PC-3, a human malignant prostate cell line (ATCC, Rockville, Md.). HPR-1 cells were cultured in keratinocyte medium supplemented with epidermal growth factor (EGF) ([…]) and bovine pituitary extracts (25 mg/500 ml) (Gibco BRL, Life Technologies, Bethesda, Md.). PC-3 cells were cultured in RPMI-1640 medium with 5% or 10% of fetal bovine serum (FBS), respectively. All media were supplemented with penicillin/streptomycin (1 U/ml, Invitrogen), and the cells were maintained at 37° C. in a humidified incubator with 5% CO2. The passages of the cell lines were within the range of 5-40. Once the cell density reached 50-60% confluence, the growth media were replaced by fresh serum/supplement-free medium for 24 h to synchronize cell growth. The cells were then treated with or without zinc sulfate (concentrations as indicated in the legends) in fresh serum/supplement-free medium for 0, 1, 3, 6, 12, and 24 h, respectively.
(§1) Cell viability and proliferation were evaluated with the MTT assay. The cells were seeded at a density of 9×10^3 cells/well in a 96 well plate containing 100 μl culture medium/well. After attachment, cells were treated with or without zinc and/or SFN at various concentrations in serum/supplement free medium. After 24 h treatment, 10 μl MTT (5 mg/ml, sigma) was added into each well and incubated at 37° C. for 1 h. Then the medium was removed and 100 μl dimethyl sulfoxide (DMSO) was added to dissolve water-insoluble formazan crystals converted from water-soluble MTT by living cells. The color absorbency of formazan was detected at a wavelength of 540 nm using a microplate reader (Molecular Devices).
[formula] experiments were designed by a statistics-based method utilizing the maximal power design developed by Fang and Tan(2003, 2008) and the corresponding SynStat version 1.beta software (http://www.umgcc.org/research/biostat_software.htm), This method uses uniform measures maximizes the minimum power of the F-test to detect departures from the additive action of drugs. […] With the information from experiments of single agents, SynStat derived 21 mixtures of the two agents and 6 replicates at each mixture based on the pooled variations in single agent experiments, which have 80% statistical power to detect at least a 15% difference in viability between the predicted additive values and the observed values at a significance level of 5%. Then, cells are exposed to these 21 mixtures and the cytotoxicity of this combination is determined. Upon completion of the experiments, we use the F-statistic given by Tan et al. (2003) to test the hypothesis of the additive action of two agents and calculate the p-value of the F-test. If the p-value is greater than 0.05, we can accept the hypothesis of the additive action of two agents. Otherwise, we calculate the interaction index (τ), which is proposed by Berenbaum who adopted the Lowe additivity model (Berenbaum, 1977) where, for a given cytotoxic effect, xA and xB are the concentrations of zinc and SFN in the combination, and XA and XB are the concentrations of zinc and SFN respectively that achieve the same cytotoxic effect when given alone. A τ value of 1 indicates additivity; τ<1 indicates synergy, and τ>1 indicates antagonism.

MT1/2 [4] = experiment: Western blot of MT1/2 expression in PC-3 cells; details: zinc at 24 h, SFN and combination at 6 and 24 h
Experimental: (§2) Total cellular proteins from the experimental samples were extracted by radioimmuno-precipitation assay (RIPA) lysis buffer (Upstate, Lake Placid, N.Y.) containing protease inhibitor (Roche Diagnostics Gmbh, Mannheim, Germany). The protein extracts (30 μg/lane) were applied to electrophoresis on an SDS-polyacrylamide gel, and then, a transferred poly(vinylidene fluoride) (PVDF) membrane (Millipore, Billerica, Mass.) was blocked in 5% nonfat dry milk in phosphate buffered saline (PBS) containing 0.05% Tween-20 (Sigma, St. Louis, Mo.) (PBST) for 1 hr at room temperature followed by the hybridization to the primary antibodies against PARP (BD pharmingen, San Jose, Calif.), caspase 3 (BD pharmingen, San Jose, Calif.), p-JNK and JNK1 (Santa Cruz, Calif.), pP38 and P38 (Cell Signaling Technology, Danvers, Mass.), ppERK1/2 (Sigma, St. Louis, Mo.), ERK1/2 (Cell Signaling Technology, Danvers, Mass.) at 4° C. overnight. After washing, the membranes were incubated with corresponding second antibodies. Beta-actin (Sigma, St. Louis, Mo.) and GAPDH (Cell Signaling Technology, Danvers, Mass.) were used as internal controls to monitor the sample loadings. […] The signals of targeted bands were scanned and quantified with an LKB Ultra Scan XL laser densitometer (Image Quant, Molecular Dynamics, Sunnyvale, Calif.).

[5] = test system: cytochrome c, pro-caspase 3 and PARP; experiment: Western blot of apoptosis proteins in PC-3 cells; details: PC-3, zinc 12.5 μM or SFN 12 μM alone, 24 h
Experimental: as §2, with “Calif.). […]” for “Calif.).”

HPR-1 cells = experiment: MTT cell viability assay, HPR-1 cells
Experimental: as §1, with “Two human prostatic cell lines were used: a) HPR-1, a cell line derived from normal human prostate epithelial cells (kindly provided by Dr. C. K. Choo, University of Hong Kong, Hong Kong, China); and b) PC-3, a human malignant prostate cell line (ATCC, Rockville, Md.). HPR-1 cells were cultured in keratinocyte medium supplemented with epidermal growth factor (EGF) ([…]) and bovine pituitary extracts (25 mg/500 ml) (Gibco BRL, Life Technologies, Bethesda, Md.). […] The passages of the cell lines were within the range of 5-40. […] Cell” for “Cell”

MT1/2 [6] = experiment: Western blot of MT1/2 expression in HPR-1 cells; details: zinc at 24 h, SFN at 6 h and 24 h
Experimental: as §2

p38 = experiment: Western blot of p38 activation in PC-3 cells; details: PC-3, 6 h treatment, versus control
Experimental: as §2

Compound	effect on MMP alteration induced by zinc/SFN (PC-3 cells [1])	effect on ROS production induced by zinc, SFN or zinc/SFN combination (PC-3 cells [2])	effect on surge of ROS induced by zinc/SFN combination (PC-3 cells [2])	effect on growth inhibitory effect of zinc, SFN and their combination (PC-3 cells [3])	effect on MMP versus control, single agent (PC-3 cells [1])	MT1/2 protein levels (MT1/2 [4])	apoptotic effect (cytochrome c, pro-caspase 3, PARP), single agent [5]	increase of ROS levels (PC-3 cells [2]; late time points (12 to 24 h), first value)	increase of ROS levels (PC-3 cells [2]; late time points (12 to 24 h), second value)	HPR-1 cells still alive (plateau) (HPR-1 cells; SFN 25 μM and even higher, 24 h)	response of HPR-1 cells to lower concentration of SFN (HPR-1 cells; SFN <10 μM, 24 h)	proliferation of HPR-1 cells (HPR-1 cells; SFN at the range of 10 to 25, 24 h, less effective than in PC-3 cells)	MT1/2 protein levels (MT1/2 [6])	phosphorylation of p38 (p38)	IC50 (PC-3 cells [3]; Homo sapiens, 24 h)	increase of ROS level (PC-3 cells [2]; PC-3, zinc alone, late time points (12 to 24 h))	HPR-1 cells still alive (HPR-1 cells; zinc 30 μM, 24 h)	response of HPR-1 cells to zinc (HPR-1 cells; zinc alone at doses of the six selected combinations, 24 h)	IC50 (PC-3 cells [3]; 24 h)	PC-3 cells that could survive (PC-3 cells [3]; zinc 30 μM, 24 h)
N[C@@H](CCC(=O)N[C@@H](CS)C(=O)NCC(=O)O)C(=O)O [GSH, reduced glutathionein]	completely prevented	significantly inhibited ROS production	completely abolished	concordantly abolished	–	–	–	–	–	–	–	–	–	–	–	–	–	–	–	–
CC(=O)N[C@@H](CS)C(=O)O [NAC, N-Acetyl Cysteine]	completely prevented	significantly inhibited ROS production	completely abolished	concordantly abolished	–	–	–	–	–	–	–	–	–	–	–	–	–	–	–	–
C[S+]([O-])CCCCN=C=S (centres unmarked) [SFN, 1-Isothiocyanato-4-methylsulfinylbutane]	–	–	–	–	did not affect MMP at all	no effect or a slight inhibition	lack of cell responses	about 35%	~55%	60%	no response	inhibited in a dose-dependent pattern	decreased expression of MT1/2	increased phosphorylation of p38	20.3 ± 0.8 µM	–	–	–	–	–
O=S(=O)([O-])[O-].[Zn+2] [zinc, zinc sulfate]	–	–	–	–	increase one fold	significant induction	lack of cell responses	–	–	–	–	–	induce expression of MT1/2 significantly	increased phosphorylation of p38	–	40-50%	around 90%	no response	16.2 ± 0.9 µM	less than 20%

— patent US8491938B2, “Potent inhibitory effect of zinc in combination with sulforaphane on cancer cell growth” (University of Maryland, Baltimore, priority 2009, dated 2013)
